Measurements from patent publication US4454123A, “O-xylopyranoside series compounds and methods of use” (Seikagaku Kogyo Co. Ltd., priority 1980, dated 1984).
Entries after “also recorded” stand apart in the source; their conditions may differ. Where two headings read alike, the source gives them in different places. Each block holds one molecule with its values, some of them ahead of it.

Tests used:
[1] = Acute toxicity (LD50) by oral or intraperitoneal administration to ddY mice (Test Example 6); assay type: in vivo; details: mouse, in vivo, 7 days
Description: The acute toxicity of the compound according to this invention was determined by forced oral or intraperitoneal administration thereof to ddY mice.
To prepare each specimen to be administered, a predetermined amount of each compound shown in Table 5 was dissolved in a physiological saline or suspended in a 0.2% solution of carboxymethylcellulose in a physiological saline. Each specimen was administered orally to a ddY mouse via its stomach tube or injected intraperitoneally.

Sarcoma-180 = assay: Activity against a transplantable cancer, Sarcoma-180 (Test Example 7); assay type: in vivo, ICR-JCL mice; details: Mus musculus, Sarcoma-180, ip, 240 h, 100 mg/kg ip once a day for 10 days; read-out: I.R. (inhibition ratio, Sarcoma-180 tumor weight)
Description: Sarcoma-180 cells (1×10^6 cells) were inoculated subcutaneously into the back skin of each of ICR-JCL mice.
Chemotherapy was given intraperitoneally 24 hrs. after inoculation and performed once a day for 10 days. Each specimen to be administered was prepared by dissolving or suspending 30 mg of each compound according to this invention in 1 ml of a physiological saline or in 1 ml of a 0.2% solution of carboxymethylcellulose in a physiological saline, respectively.
All the solutions and the suspensions thus prepared were injected at a volume of 0.1 ml as a single dose (100 mg/Kg).
The inhibition ratio (%) was calculated according to the following equation: […]
wherein T represents the mean weight of the tumor Sarcoma-180 in a tested group of mice; and C represents the mean weight of the tumor in a control group of mice.

[2] = tested on: synthesis of [35S]glycosaminoglycan in epiphysial cartilages; assay: Recovery in the rate of 35S uptake in cartilage in which glycosaminoglycan synthesis was inhibited by cycloheximide (Test Examples 4, 5); assay type: cell-based, chick embryos; details: for 35S uptake as compared with the case where no xylopyranoside was added: 0.02 mM solution in DMSO; for effectiveness as initiator for the synthesis of chondroitin sulfate: 1.0 mM solution in DMSO, in words; for Rate of 35S uptake: cycloheximide 0.3 mM
Description: (§1) Epiphysial cartilages were taken from chick embryos aged 12 days in the Tyrode's medium under ice-cooling, and excess tissues were removed therefrom. To 150 mg. of cartilages corresponding to five embryos, 5 ml. of BGJb [a completely synthetic culture medium prepared according to a recipe of GIBCO (Grand Island Biological Company)] was added, followed by pre-incubation at a temperature of 37° C. After replacing the culture medium, further 1 ml. of BGJb and 5 μCi Na2^35 SO4 were added, and the culture system was kept at 37° C. for 3 hours. The culture medium was then replaced by 1 ml. of a fresh chase medium containing no radio active isotope. After keeping the culture system at 37° C. for 1 hour, the culture medium was separated from the tissues. To study the effects of the xyloside compound on the synthesis of glycosaminoglycan, the xyloside compound was added in the predetermined concentration to the pre-incubation and incubation media.
(§2) After the incubation, the labeled medium containing Na2^35 SO4 was combined with the chase medium. Pronase-P (trade name) (available from Kaken Kagaku Co., Ltd.) was added thereto in a 0.5 M tris-HCl buffer solution (pH 8.0), and the resulting mixture was digested at 50° C. for 16 hours. The digested reaction mixture was then subjected to gel filtration through a column (1.5×14 cm.) packed with Bio-Gel P-2 (available from Bio-Rad Company) using a 0.2 M ammonium formate solution as an eluate. In this way, the Vo fraction was collected and was then freeze-dried to give a crude glycosaminoglycan.
(§3) On the other hand, ice-cold 4 M guanidine hydrochloride was added to the tissues which were previously separated from the culture medium. The resulting mixture was left to stand overnight at a temperature of -20° C., and then homogenized. The obtained homogenate was left to stand overnight at room temperature and centrifuged at a speed of 8,500 rpm to obtain a supernatant. To the obtained liquid, water was added in an amount threefold that of the supernatant. Then, a 95% ethyl alcohol (containing 1.3% of potassium acetate) was added to the resulting mixture in an amount threefold that of the mixture to obtain a precipitate. This procedure was repeated twice, and the combined precipitates were dried in a desiccator. The obtained precipitates were dissolved in a 0.02 M tris-HCl buffer solution (pH 8.0) and digested with Pronase-P in the manner similar to the culture medium described above, thereby obtaining a crude glycosaminoglycan.
(§4) According to the same procedure as in Test example 1, a crude glycosaminoglycan was obtained.
As the xyloside compound, publicly-known methyl 1-thio-β-D-xylopyranoside and n-butyl 1-thio-β-D-xylopyranoside,and six compounds according to the present invention viz. n-heptyl 1-thio-β-D-xylopyranoside, n-nonyl 1-thio-β-D-xylopyranoside, n-decyl 1-thio-β-D-xylopyranoside, n-undecyl […], n-lauryl 1-thio-β-D-xylopyranoside and n-cetyl 1-thio-β-D-xylopyranoside were used. The effects of these compounds on the total amount of [^35 S]glycosaminoglycan synthesized (^35 S uptake amount) were investigated.
That is, after the effect of the addition of DMSO (dimethyl sulfoxide) which is a solvent was investigated, […], thereby inhibiting the synthesis of [^35 S]glycosaminoglycan by around up to 95%. Subsequently, to the medium in which the synthesis of glycosaminoglycan had been inhibited, there was added each solution of the xyloside compound in DMSO having various concentrations to investigate the recovery in the rate of the ^35 S uptake (the relative value expressed by percentage ^35 S uptake relative to the amount of uptake in a control medium to which no xylpyranoside compound was added).
According to the same procedure as in Example 1, a crude glycosaminoglycan was obtained. […]

[3] = tested on: synthesis of chondroitin sulfate in epiphysial cartilages; assay: Effect of xyloside compounds on synthesis of [35S]glycosaminoglycan (chondroitin sulfate) in epiphysial cartilage culture (Test Examples 1-3); assay type: cell-based, chick embryos; details: for concentration required compared with O-β-D-xylopyranoside compounds / effectiveness as initiator for the synthesis of chondroitin sulfate / total 35S uptake amount of glycosaminoglycan as the concentration of the xyloside compound rose: in words; for total 35S uptake amount of glycosaminoglycan as the concentration of the xyloside compound rose: concentration in culture medium varied; for activity at 1000 µM: Gallus gallus
Description: as §1, §2, §3
As the xyloside compound, conventional O-paranitrophenyl-β-D-xylopyranoside, and two compounds according to the present invention viz. C-n-butyl-β-D-xylopyranoside and C-ethyl-β-D-xylopyranoside were used. The effects of these xyloside compounds on the total amount of [^35 S] glycosaminoglycan synthesized (^35 S uptake amount), the amount thereof liberated to the culture medium and the amount thereof remaining in the tissues were as shown in FIGS. 1 to 3.
In each Figure, the vertical axis denotes the amount of [^35 S]chondroitin sulfate (^35 S cpm×10^-4 /μmol.uronic acid) and the horizontal axis denotes the concentration (mM) of each xylopyranoside compound in the culture medium.
as §4
As the xyloside compound, conventional O-paranitrophenyl β-D-xylopyranoside and N-para(sodiumoxycarbonyl)phenyl-D-xylopyranosylamine, and three compounds according to the present invention viz. para(sodiumoxycarbonyl)phenyl β-D-xylopyranoside, C-para(sodiumoxycarbonyl)benzyl-β-D-xylopyranoside and para(sodiumoxycarbonyl)phenyl 1-thio-β-D-xylopyranoside were used. The effects of these xyloside compounds on the total amount of [^35 S]glycosaminoglycan synthesized (^35 S uptake amount) were shown in FIGS. 3 to 7. […]

[4] = ip, intraperitoneal, read-out: LD50 (ip)

SMILES: O=C(O)c1ccc(C[C@@H]2OC[C@@H](O)[C@H](O)[C@H]2O)cc1 [C-Para(lithiumoxycarbonyl)benzyl-β-D-xylopyranoside]
- LD50 at 168 h [1, 4]: 2500 mg/kg
- LD50 at 168 h ([1]; po, read-out: LD50 (po)): 8600 mg/kg
- inhibition in vivo at 100 mg/kg (Sarcoma-180): 44.7%

- 35S uptake as compared with the case where no xylopyranoside was added [2]: around twice
SMILES: CCCCCCCS[C@@H]1OC[C@@H](O)[C@H](O)[C@H]1O [n-heptyl 1-thio-β-D-xylopyranoside, n-Heptyl 1-thio-β-D-xylopyranoside]

SMILES: O[C@@H]1[C@@H](O)[C@H](Cc2ccccc2)OC[C@H]1O [C-Benzyl-1-β-D-xylopyranoside, C-Benzyl-β-D-xylopyranoside]
- LD50 at 168 h [1, 4]: 2400 mg/kg
- LD50 at 168 h ([1]; po, read-out: LD50 (po)): 7200 mg/kg
- inhibition in vivo at 100 mg/kg (Sarcoma-180): 30.9%

SMILES: CCCCCC[C@@H]1OC[C@@H](O)[C@H](O)[C@H]1O [C-n-hexyl-β-D-xylopyranoside, C-n-Hexyl-β-D-xylopyranoside]
- effectiveness as initiator for the synthesis of chondroitin sulfate [2]: extremely effective initiators for the synthesis of chondroitin sulfate
- Rate of 35S uptake ([2]; xyloside 0.2 mM, DMSO 0.1%): 82.0%
- Rate of 35S uptake ([2]; xyloside 0.5 mM, DMSO 0.1%): 148.0%
- Rate of 35S uptake ([2]; xyloside 1.0 mM, DMSO 0.1%): 196.0%

SMILES: CCCCCCC[C@@H]1OC[C@@H](O)[C@H](O)[C@H]1O [C-n-Heptyl-β-D-xylopyranoside]
- LD50 at 168 h [1, 4]: 1040 mg/kg
- LD50 at 168 h ([1]; po, read-out: LD50 (po)): 4200 mg/kg
- inhibition in vivo at 100 mg/kg (Sarcoma-180): 54.8%
- effectiveness as initiator for the synthesis of chondroitin sulfate [2]: extremely effective initiators for the synthesis of chondroitin sulfate
- Rate of 35S uptake ([2]; xyloside 0.2 mM, DMSO 0.1%): 114.0%
- Rate of 35S uptake ([2]; xyloside 0.5 mM, DMSO 0.1%): 183.0%
- Rate of 35S uptake ([2]; xyloside 1.0 mM, DMSO 0.1%): 193.0%

SMILES: CC(C)S[C@@H]1OC[C@@H](O)[C@H](O)[C@H]1O [Isopropyl 1-thio-β-D-xylopyranoside]
- LD50 at 168 h [1, 4]: 2200 mg/kg
- LD50 at 168 h ([1]; po, read-out: LD50 (po)): 6700 mg/kg
- inhibition in vivo at 100 mg/kg (Sarcoma-180): 30.4%

SMILES: O=C(O)c1ccc(O[C@@H]2OC[C@@H](O)[C@H](O)[C@H]2O)cc1 [Para(potassiumoxycarbonyl)phenyl-β-D-xylopyranoside]
- LD50 at 168 h [1, 4]: 3020 mg/kg
- LD50 at 168 h ([1]; po, read-out: LD50 (po)): 9800 mg/kg
- inhibition in vivo at 100 mg/kg (Sarcoma-180): 44.8%

SMILES: NC(=O)c1ccc(NC2OC[C@@H](O)[C@H](O)[C@H]2O)cc1 (stereo partly drawn) [N-carbamoylphenyl-D-xylopyranosylamine, N-Paracarbamoylphenyl-D-xylopyranosylamine]
- concentration required compared with O-β-D-xylopyranoside compounds [3]: requires higher concentration as compared with the O-β-D-xylopyranoside compounds
- effectiveness as initiator for the synthesis of chondroitin sulfate [3]: good initiator for the synthesis of chondroitin sulfate
- total 35S uptake amount of glycosaminoglycan as the concentration of the xyloside compound rose [3]: increased as the concentration of the xyloside compound rose

- 35S uptake as compared with the case where no xylopyranoside was added [2]: around twice
SMILES: CCCCCCCCS[C@@H]1OC[C@@H](O)[C@H](O)[C@H]1O [n-octyl 1-β-D-xylopyranoside, n-Octyl 1-thio-β-D-xylopyranoside]

SMILES: O=C(O)c1ccc(S[C@@H]2OC[C@@H](O)[C@H](O)[C@H]2O)cc1 [Para(lithiumoxycarbonyl)phenyl 1-thio-β-D-xylopyranoside]
- LD50 at 168 h [1, 4]: 2700 mg/kg
- LD50 at 168 h ([1]; po, read-out: LD50 (po)): 7800 mg/kg
- inhibition in vivo at 100 mg/kg (Sarcoma-180): 47.2%

SMILES: CC(C)CCS[C@@H]1OC[C@@H](O)[C@H](O)[C@H]1O [Isoamyl 1-thio-β-D-xylopyranoside]
- LD50 at 168 h [1, 4]: 1850 mg/kg
- LD50 at 168 h ([1]; po, read-out: LD50 (po)): 5800 mg/kg
- inhibition in vivo at 100 mg/kg (Sarcoma-180): 35.6%

SMILES: C[C@@H]1C[C@@H]([C@H](O)CC2CC(=O)NC(=O)C2)C(=O)[C@@H](C)C1 [cycloheximide, reference compound]
- inhibition at 30 µM ([2]; Gallus gallus, read-out: inhibition of the synthesis of [35S]glycosaminoglycan): ~95%
- Rate of 35S uptake ([2]; no xyloside, DMSO 0%, relative to control medium): 5.5%
- Rate of 35S uptake ([2]; no xyloside, DMSO 0.1%, relative to control medium): 4.9%
- Rate of 35S uptake ([2]; no xyloside, DMSO 0.2%, relative to control medium): 6.1%
- Rate of 35S uptake ([2]; no xyloside, DMSO 0.5%, relative to control medium): 6.1%
- Rate of 35S uptake ([2]; no xyloside, DMSO 1.0%, relative to control medium): 5.8%

SMILES: O=C(O)c1ccc(NC2OC[C@@H](O)[C@H](O)[C@H]2O)cc1 (stereo partly drawn) [N-para(sodiumoxycarbonyl)phenyl-D-xylopyranosylamine]
- concentration required compared with O-β-D-xylopyranoside compounds [3]: requires higher concentrations as compared with O-paranitrophenyl-β-D-xylopyranoside
- total 35S uptake amount of glycosaminoglycan as the concentration of the xyloside compound rose [3]: shows a similar tendency; also recorded: does not change remarkably within the range of the concentration of 0 to 20 mM of the compound and that the increase in the total uptake amount thereafter is mild

- 35S uptake of glycosaminoglycan relative to control ([3]; at 1 mM): 2.35 times that of the control
SMILES: O=[N+]([O-])c1ccc(O[C@@H]2OC[C@@H](O)[C@H](O)[C@H]2O)cc1 [O-paranitrophenyl-β-D-xylopyranoside]
- activity at 1000 µM ([3]; at 1 mM, read-out: [35S]glycosaminoglycan liberated to the culture medium): 95%
- activity at 1000 µM ([3]; at 1 mM, read-out: [35S]glycosaminoglycan remaining in the tissues): 11%
- 35S uptake of glycosaminoglycan ([3]; at 1 mM): 40800 cpm
- [35S]glycosaminoglycan remaining in the tissues ([3]; at 1 mM): 11 % of the control
- effectiveness as initiator for the synthesis of chondroitin sulfate [3]: extremely effective as an initiator for the synthesis of chondroitin sulfate; also recorded: extremely effective as the initiator for the synthesis of condroitin sulfate
- total 35S uptake amount of glycosaminoglycan as the concentration of the xyloside compound rose [3]: increased
